# Test results from ChEMBL document CHEMBL1201862, “PubChem BioAssay data set” (2004).
# The source made the active and inactive calls.
# Key:
# Format in all cases: functional
# CHO-K1 = test: (§1) Counterscreen for antagonists of the orexin 1 receptor (OX1R; HCRTR1): Homogeneous time resolved fluorescence (HTRF)-based cell-based dose response assay to identify antagonists of the parental CHO-K1 cell line. [Related pubchem assays (depositor defined):AID434989, AID435008, AID463079, AID485270, AID492963, AID492964, AID492965, AID493232, AID504699, AID504701]; settings: Cricetulus griseus
# [1] = as §1, with “Fluorescence-based” for “Homogeneous time resolved fluorescence (HTRF)-based”, “cell-based high throughput” for “cell-based”, “CHO” for “CHO-K1”
# [2] = target: T1, Orexin/Hypocretin receptor type 1 (Homo sapiens, UniProt O43613); test: Homogeneous Time Resolved Fluorescence (HTRF)-based cell-based high throughput dose response assay for antagonists of the orexin 1 receptor (OX1R; HCRTR1). [Related pubchem assays (depositor defined):AID434989, AID435008, AID463079, AID485270, AID492963, AID492964, AID492965, AID493232, AID504717, AID504718]
# T1 sequence (O43613 whole entry): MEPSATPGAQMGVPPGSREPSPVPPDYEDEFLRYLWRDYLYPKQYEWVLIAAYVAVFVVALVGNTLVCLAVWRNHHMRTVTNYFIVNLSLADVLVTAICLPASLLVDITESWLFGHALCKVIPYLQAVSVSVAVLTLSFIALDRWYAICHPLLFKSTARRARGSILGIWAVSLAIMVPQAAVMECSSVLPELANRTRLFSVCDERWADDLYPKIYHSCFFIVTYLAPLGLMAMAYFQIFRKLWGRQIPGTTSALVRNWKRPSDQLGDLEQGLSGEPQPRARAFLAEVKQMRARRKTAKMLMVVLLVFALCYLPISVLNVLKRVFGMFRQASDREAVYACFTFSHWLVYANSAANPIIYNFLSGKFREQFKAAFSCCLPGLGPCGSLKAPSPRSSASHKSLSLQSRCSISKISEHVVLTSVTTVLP
# [3] = target: T1, Orexin/Hypocretin receptor type 1; test: Fluorescence-based cell-based high throughput dose response assay for antagonists of the orexin 1 receptor (OX1R; HCRTR1). [Related pubchem assays (depositor defined):AID434989, AID435008, AID463079, AID485270, AID492963, AID492964, AID492965, AID493232, AID504717, AID504718]
# Orexin receptor type 2 [4] = target: T2, Orexin receptor type 2 (Homo sapiens, UniProt O43614); test: Counterscreen assay for antagonists of the orexin 1 receptor (OX1R; HCRTR1): Fluorescence-based cell-based dose response assay for antagonists of the orexin 2 receptor (OX2R; HCRTR2), run by assay provider.
# T2 sequence (O43614 whole entry): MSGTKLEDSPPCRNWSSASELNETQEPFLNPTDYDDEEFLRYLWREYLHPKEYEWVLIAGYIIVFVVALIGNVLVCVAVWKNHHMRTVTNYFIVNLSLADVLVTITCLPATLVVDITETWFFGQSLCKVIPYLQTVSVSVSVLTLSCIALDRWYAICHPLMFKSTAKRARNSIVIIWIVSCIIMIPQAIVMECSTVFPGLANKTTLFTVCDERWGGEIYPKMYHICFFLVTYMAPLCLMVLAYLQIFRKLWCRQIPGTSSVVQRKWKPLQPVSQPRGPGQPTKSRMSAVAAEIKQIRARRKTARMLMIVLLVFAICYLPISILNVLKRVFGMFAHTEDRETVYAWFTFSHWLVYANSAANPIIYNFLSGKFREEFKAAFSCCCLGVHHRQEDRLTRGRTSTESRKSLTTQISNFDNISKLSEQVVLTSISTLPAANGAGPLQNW
# Orexin receptor type 2 [5] = target: T2, Orexin receptor type 2; test: Counterscreen assay for antagonists of the orexin 1 receptor (OX1R; HCRTR1): Homogeneous Time Resolved Fluorescence (HTRF)-based cell-based dose response assay for antagonists of the orexin 2 receptor (OX2R; HCRTR2), run by assay provider.
# [6] = target: T3, Sentrin-specific protease 8 (Homo sapiens, UniProt Q96LD8); test: inhibition of human SENP8 cleavage activity – biochemical, luminescence, SAR follow-up (AID 504501)
# T3 sequence (Q96LD8 whole entry): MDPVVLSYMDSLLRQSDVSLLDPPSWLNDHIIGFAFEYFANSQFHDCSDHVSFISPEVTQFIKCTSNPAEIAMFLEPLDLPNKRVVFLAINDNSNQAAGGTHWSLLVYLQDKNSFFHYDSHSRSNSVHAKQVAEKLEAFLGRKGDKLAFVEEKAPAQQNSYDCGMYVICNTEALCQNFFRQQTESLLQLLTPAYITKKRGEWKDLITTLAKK
# Caspase-3 = target: T4, Caspase-3 (Homo sapiens, UniProt P42574); test: SAR Analysis of small molecule inhibitors of Sentrin-specific proteases (SENPs) using a Caspase-3 Selectivity assay. [Related pubchem assays (depositor defined):AID2540, AID2599, AID434973, AID489001]
# T4 sequence (P42574 whole entry): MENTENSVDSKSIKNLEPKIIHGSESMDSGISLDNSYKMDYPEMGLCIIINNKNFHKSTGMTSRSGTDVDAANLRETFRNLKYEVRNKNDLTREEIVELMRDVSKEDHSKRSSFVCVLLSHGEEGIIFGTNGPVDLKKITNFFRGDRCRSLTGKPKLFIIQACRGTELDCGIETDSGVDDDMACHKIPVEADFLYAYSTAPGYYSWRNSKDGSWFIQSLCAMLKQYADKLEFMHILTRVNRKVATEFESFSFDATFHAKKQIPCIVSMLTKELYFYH
# [7] = target: T5, Sentrin-specific protease 6 (Homo sapiens, UniProt Q9GZR1); test: SAR Analysis of small molecule inhibitors of Sentrin-specific protease 6 (SENP6) using a Luminescent assay. [Related pubchem assays (depositor defined):AID2582, AID2599]
# T5 sequence (Q9GZR1 whole entry): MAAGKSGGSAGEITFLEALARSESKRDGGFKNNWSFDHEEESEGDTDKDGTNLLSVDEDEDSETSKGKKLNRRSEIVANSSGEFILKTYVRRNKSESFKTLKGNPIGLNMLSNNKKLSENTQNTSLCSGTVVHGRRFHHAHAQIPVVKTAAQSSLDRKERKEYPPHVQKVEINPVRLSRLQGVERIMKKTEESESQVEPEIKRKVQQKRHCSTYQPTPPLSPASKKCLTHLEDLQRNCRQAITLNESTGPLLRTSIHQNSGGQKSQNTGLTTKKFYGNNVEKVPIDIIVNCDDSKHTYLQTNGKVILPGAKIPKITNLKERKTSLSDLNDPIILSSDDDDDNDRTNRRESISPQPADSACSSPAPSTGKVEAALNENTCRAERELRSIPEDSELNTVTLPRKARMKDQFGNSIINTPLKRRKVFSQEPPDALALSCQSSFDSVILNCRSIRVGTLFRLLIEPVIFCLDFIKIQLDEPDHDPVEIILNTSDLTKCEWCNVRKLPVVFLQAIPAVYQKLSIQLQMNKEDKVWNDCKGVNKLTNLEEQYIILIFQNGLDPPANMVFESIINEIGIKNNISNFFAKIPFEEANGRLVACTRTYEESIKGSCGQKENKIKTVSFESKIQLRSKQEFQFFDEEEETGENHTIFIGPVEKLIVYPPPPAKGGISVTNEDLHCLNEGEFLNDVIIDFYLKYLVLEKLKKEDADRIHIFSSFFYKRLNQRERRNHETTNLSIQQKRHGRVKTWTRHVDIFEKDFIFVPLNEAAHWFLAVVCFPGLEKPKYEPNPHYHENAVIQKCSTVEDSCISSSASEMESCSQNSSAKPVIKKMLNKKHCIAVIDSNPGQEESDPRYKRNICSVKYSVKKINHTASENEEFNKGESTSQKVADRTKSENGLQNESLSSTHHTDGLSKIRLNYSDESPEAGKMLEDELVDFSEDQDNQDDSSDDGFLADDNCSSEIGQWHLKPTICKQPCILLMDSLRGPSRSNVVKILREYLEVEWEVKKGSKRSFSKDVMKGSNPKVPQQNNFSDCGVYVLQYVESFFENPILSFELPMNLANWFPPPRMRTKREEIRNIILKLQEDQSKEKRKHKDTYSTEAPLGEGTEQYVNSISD
# [8] = target: T6, Sentrin-specific protease 7 (Homo sapiens, UniProt Q9BQF6); test: inhibition of human SENP7 cleavage activity – biochemical, luminescence, SAR follow-up (AID 504497)
# T6 sequence (Q9BQF6 whole entry): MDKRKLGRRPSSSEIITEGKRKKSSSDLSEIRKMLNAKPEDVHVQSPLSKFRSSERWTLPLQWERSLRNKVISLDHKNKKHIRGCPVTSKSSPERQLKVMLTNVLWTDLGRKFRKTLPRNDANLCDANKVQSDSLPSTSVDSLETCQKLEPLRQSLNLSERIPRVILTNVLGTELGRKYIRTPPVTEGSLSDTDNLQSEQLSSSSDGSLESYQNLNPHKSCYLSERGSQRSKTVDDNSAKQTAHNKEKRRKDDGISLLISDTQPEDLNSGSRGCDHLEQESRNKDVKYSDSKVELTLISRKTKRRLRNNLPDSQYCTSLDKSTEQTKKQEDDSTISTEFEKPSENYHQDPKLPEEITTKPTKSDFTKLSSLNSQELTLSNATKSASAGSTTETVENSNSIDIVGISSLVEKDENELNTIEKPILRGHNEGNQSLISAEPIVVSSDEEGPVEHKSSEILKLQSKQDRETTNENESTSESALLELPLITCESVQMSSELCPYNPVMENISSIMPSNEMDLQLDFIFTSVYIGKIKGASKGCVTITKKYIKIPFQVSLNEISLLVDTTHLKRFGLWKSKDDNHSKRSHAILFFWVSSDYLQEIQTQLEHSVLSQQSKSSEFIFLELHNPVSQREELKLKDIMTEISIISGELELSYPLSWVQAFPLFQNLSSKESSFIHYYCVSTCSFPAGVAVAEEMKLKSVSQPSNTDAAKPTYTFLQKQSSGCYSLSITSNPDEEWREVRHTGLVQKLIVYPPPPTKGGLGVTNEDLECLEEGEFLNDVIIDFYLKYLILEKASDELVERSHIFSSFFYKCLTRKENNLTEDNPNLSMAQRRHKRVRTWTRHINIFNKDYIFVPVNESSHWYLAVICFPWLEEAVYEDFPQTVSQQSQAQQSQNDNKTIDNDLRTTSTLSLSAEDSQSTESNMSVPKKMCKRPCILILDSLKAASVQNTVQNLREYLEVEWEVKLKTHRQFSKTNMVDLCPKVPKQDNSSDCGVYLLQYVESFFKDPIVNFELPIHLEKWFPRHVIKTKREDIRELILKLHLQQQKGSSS
IC50 (Caspase-3),IC50 [7],IC50 [8],Structure (SMILES),IC50 (CHO-K1),IC50 [1],IC50 [2],IC50 [3],IC50 (Orexin receptor type 2 [4]),IC50 (Orexin receptor type 2 [5]),IC50 [6]
–,–,–,Cc1cccc(NC(=O)[C@@H]2CCCN2S(=O)(=O)c2ccc(Cl)cc2)c1,> 66.2 µM (inactive),> 49.7 µM (inactive),0.153 µM (active),4.23 µM (active),1.4 µM (active),0.37 µM (active),–
> 99 µM (inactive),18.7 µM (active),> 99 µM (inactive),NC(=O)c1ccc(OC2CSC2)cc1,–,–,–,–,–,–,7.5 µM (active)
